According to publication PMC6152057, “Multifunctional Cinnamic Acid Derivatives” (Molecules : A Journal of Synthetic Chemistry and Natural …, 2017):
Values joined by “and” are separate entries in the source; they are usually repeats but may differ in a detail not shown here. Identical values can stand only once. “Also recorded” adds a separate entry of the source.

Assays:
[1] = Lipophilicity as RM values by RP-TLC; type: physicochemical; design: key: RM = log[(1/Rf) − 1]; settings: MeOH:H2O (70/30), average of at least 5 measurements
Experimental: Reversed phase TLC (RP-TLC) was performed on silica gel plates impregnated with 5% (v/v) liquid paraffin in light petroleum ether. The mobile phase was a methanol/water mixture (70/30, v/v). The plates were developed in closed chromatography tanks saturated with the mobile phase at 24 °C. Spots were detected under UV light. RM values were determined from the corresponding Rf values (from five individual measurements) using the equation RM = log[(1/Rf) − 1] (Table 1).

[2] = Inhibition of linoleic acid lipid peroxidation (AAPH); settings: 100 μM; AAPH-induced oxidation of sodium linoleate, pH 7.4, 37 °C; na = no activity
Experimental: Production of conjugated diene hydro peroxide by oxidation of sodium linoleate in an aqueous solution was monitored at 234 nm. AAPH was used as a free radical initiator. Ten microliters of the 16 mM sodium linoleate solution was added to the UV cuvette containing 930 μL of 0.05 M phosphate buffer, pH 7.4 prethermostated at 37 °C. The oxidation reaction was initiated at 37 °C under air by the addition of 50 μL of 40 mM AAPH solution. 10 μL of the appropriate solutions of the tested compounds were added in the mixture. Lipid oxidation was measured in the presence of the same level of DMSO. The rate of oxidation at 37 °C was monitored by recording the increase in absorption at 234 nm caused by conjugated diene hydro peroxides [24].

soybean lipoxygenase = target: T1, soybean lipoxygenase (Glycine max, UniProt P08170); test: Soybean lipoxygenase inhibition in vitro (UV-based enzyme assay); type: biochemical; settings: for IC50: sodium linoleate substrate, tris buffer pH 9, read-out: IC50 μΜ, inhibition of soybean lipoxygenase
T1 construct: purchased Sigma Chemical, Co. (St. Louis, MO, USA)
T1 sequence (P08170 1-839): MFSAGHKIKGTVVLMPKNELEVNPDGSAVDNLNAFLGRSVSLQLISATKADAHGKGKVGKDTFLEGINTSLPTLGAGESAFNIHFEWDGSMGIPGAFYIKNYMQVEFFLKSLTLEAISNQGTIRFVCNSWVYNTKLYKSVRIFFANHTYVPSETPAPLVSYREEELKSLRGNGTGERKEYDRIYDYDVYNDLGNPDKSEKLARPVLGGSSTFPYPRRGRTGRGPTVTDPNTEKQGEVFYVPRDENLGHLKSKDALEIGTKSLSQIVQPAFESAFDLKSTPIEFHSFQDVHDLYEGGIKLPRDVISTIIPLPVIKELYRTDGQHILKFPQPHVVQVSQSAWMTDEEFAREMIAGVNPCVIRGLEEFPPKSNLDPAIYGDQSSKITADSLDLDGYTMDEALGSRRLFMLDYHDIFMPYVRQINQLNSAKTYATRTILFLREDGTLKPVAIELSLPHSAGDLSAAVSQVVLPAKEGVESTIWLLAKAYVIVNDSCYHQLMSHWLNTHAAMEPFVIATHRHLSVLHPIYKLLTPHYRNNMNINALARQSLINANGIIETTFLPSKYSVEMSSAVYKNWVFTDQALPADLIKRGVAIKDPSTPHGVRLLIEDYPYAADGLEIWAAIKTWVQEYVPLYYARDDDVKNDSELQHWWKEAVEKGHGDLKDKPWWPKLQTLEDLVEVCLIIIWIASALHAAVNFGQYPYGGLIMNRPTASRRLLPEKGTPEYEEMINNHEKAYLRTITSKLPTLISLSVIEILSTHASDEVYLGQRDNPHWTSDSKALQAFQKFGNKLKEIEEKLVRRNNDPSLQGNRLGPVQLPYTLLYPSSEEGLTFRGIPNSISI
Experimental: The tested compounds were dissolved in DMSO (10 μL) and incubated at room temperature with sodium linoleate (100 mM) and 0.2 mL of enzyme solution (1/9 × 10^−4 w/v in saline) in buffer pH 9 (tris) at room temperature (final volume 1 mL). […] Several concentrations were used for the determination of IC50 values.

trypsin = target: T2, trypsin (Bos taurus, UniProt P00760); test: Inhibition of trypsin induced proteolysis in vitro (modified Kunitz method); type: biochemical, bovine; settings: for IC50: bovine albumin substrate, pH 7.6, 37 °C, read-out: IC50 μΜ, inhibition of trypsin induced proteolysis
T2 construct: purchased Sigma Chemical, Co. (St. Louis, MO, USA); host or cells: bovine pancreas
T2 sequence (P00760 24-246): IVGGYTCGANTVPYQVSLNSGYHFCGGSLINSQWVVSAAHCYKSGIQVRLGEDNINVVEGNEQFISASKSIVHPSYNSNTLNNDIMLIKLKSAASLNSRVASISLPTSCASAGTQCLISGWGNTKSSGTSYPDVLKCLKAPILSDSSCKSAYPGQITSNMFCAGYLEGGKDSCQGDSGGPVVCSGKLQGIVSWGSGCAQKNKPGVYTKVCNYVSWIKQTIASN
Experimental: All chemicals, solvents, chemical and biochemical reagents were of analytical grade and purchased from commercial sources (Merck, Merck KGaA, Darmstadt, Germany, Fluka Sigma-Aldrich Laborchemikalien GmbH, Hannover, Germany, Alfa Aesar, Karlsruhe, Germany and Sigma, St. Louis, MO, USA). Soybean lipoxygenase, pancreatic bovine trypsin, sodium linoleate, 2,2-azobis (2-amidinopropane) dihydrochloride (AAPH) were obtained from Sigma Chemical, Co. (St. Louis, MO, USA).
The test was carried out according to a modified Kunitz method. Bovine albumin was used as substrate for trypsin [24]. The reaction mixture consisted of 200 μL of 0.075 mg/mL trypsin and 780 μL of phosphate buffer pH 7.6 (including the tested compounds (20 μL in DMSO, final concentration 100 μM) preincubated at 37 °C for 20 min and then 1 mL of albumin (stock solution 6 g/100 mL in phosphate buffer 0.1 M, pH 7.6) was added and incubated at 37 °C for 30 min. After the incubation 1 mL of 5% trichloroacetic acid was added to the incubated solution to stop the enzyme’s reaction and allowed to set at room temperature for 1 h. Then the solution was filtered and the absorption of the filtered solution was measured at 280 nm.

[3] = tested on: L929 mouse fibroblasts cells; test: Cytotoxicity, propidium iodide fluorescence method; type: cell-based; settings: 24 h incubation, 1–100 μM
Experimental: The cytotoxicity of the synthesized derivatives was determined using the propidium iodide (PI) fluorescence method in the presence of different concentrations (1–100 μM) of these compounds. L929 mouse fibroblasts cells were used in this work since they have been previously used in the study of the pharmacological effects of antioxidant and anti-inflammatory agents. The cytotoxicity results of the new compounds against normal cells (such as the L929 fibroblasts) would give useful information as only non-cytotoxic compounds should be further evaluated as potential antioxidant drugs. The results are presented in Figure 1 in the form of the % cell survival values as propidium iodide % (PI)—values PI% for the examined compounds.
L929 mouse fibroblasts cells were cultured in EMEM supplemented with 10% horse serum, 2 mM L-glutamine, 1 mM sodium pyruvate, 0.1 mM nonessential amino acids, 1.5 g/L sodium bicarbonate and 100 μg/mL penicillin–streptomycin at 37 °C in a humidified atmosphere with 5% CO2. L929 cells were plated into 24-well plates at a density […] and allowed to attach and grow for 24 h. […] After 24 h incubation, the supernatant was removed and the cells were washed with PBS. […] The PI fluorescence (cell death) was determined with flow cytometry, FACS Calibur, Coulter Epics XL-MCL (Beckman, Inc., Mount Holly, NJ, USA). […]

Compound | RM (±SD) [1] | ILP% @100 μΜ (% inhibition of lipid peroxidation) [2] | IC50 (soybean lipoxygenase) [µM] | Anti-proteolytic activity, trypsin inhibition (in words) (trypsin) | IC50 (trypsin) [µM] | melting point [°C] | Cytotoxicity on L929 cells as PI% values (in words) [3] | Soybean LOX inhibition (in words) (soybean lipoxygenase) | inhibition at 100 µM (soybean lipoxygenase; 100 μM, na = no activity under the reported experimental conditions, read-out: LOX Inh. % @ 100 μΜ) [%] | inhibition at 100 µM (trypsin; 100 μM, na = no activity under the reported experimental conditions, read-out: Trypsin Inh. % @100 μM) [%]
3,4-dimethoxycaffeic acid [Compound 3] | −0.869 ± 0.0614 | 86% | – | – | – | – | – | – | – | –
CC(C)NCC(O)COc1ccc(CC(N)=O)cc1 (stereo not shown) [Atenolol, atenolol, reference compound] | – | – | 22.5 | did not present any activity | – | – | – | – | – | –
O=C(O)/C=C/c1ccccc1 [Compound 1, cinnamic acid] | −0.485 and −0.485 ± 0.044 | 78% | – | – | – | – | – | – | – | –
CC(C)N(CC(O)COc1ccc(CC(N)=O)cc1)C(=O)/C=C/c1ccccc1 (stereo not shown) [Compound 1a] | −0.720 and −0.720 ± 0.012 | 97% | 66 | – | 0.315 | 102 to 105 | – | – | – | –
CC(C)N(CC(O)COc1cccc2ccccc12)C(=O)/C=C/c1ccccc1 (stereo not shown) [Compound 1b, (E)-N-(2-hydroxy-3-(naphthalen-1-yloxy)propyl)-N-isopropylcinnamamide] | 0.411 and 0.411 ± 0.061 | 69% | 50 | – | 10 | – | remarkable cytotoxicity | – | – | –
O=C(/C=C/c1ccccc1)OC12CC3CC(CC(C3)C1)C2 [Compound 1c, (E)-adamantan-1-yl cinnamate] | 0.911 and 0.911 ± 0.0112 | – | – | – | 49 | 183 to 185 | – | low or no activity; also recorded: inactive | – | –
O=C(/C=C/c1ccccc1)Oc1cccc2ccccc12 [Compound 1d, (E)-naphthalen-1-yl cinnamate] | 0.0889 ± 0.002 | inactive | 27.5 | – | – | 210 to 212 | – | low or no activity | – | –
O=C(/C=C/c1ccccc1)OCCN(Cc1ccccc1)C(=O)/C=C/c1ccccc1 [Compound 1f, 2-(N-benzylcinnamamido) ethyl cinnamate] | 0.1402 ± 0.0227 | inactive | – | – | 100 | – | – | low or no activity | 20 | –
O=C(O)/C=C/c1cccc(Oc2ccccc2)c1 [Compound 2, (E)-3-(3-phenoxyphenyl)acrylic acid] | −0.41 ± 0.016 | 84% | 66 | – | – | – | – | – | – | –
CC(C)N(CC(O)COc1ccc(CC(N)=O)cc1)C(=O)/C=C/c1cccc(Oc2ccccc2)c1 (stereo not shown) [Compound 2a] | 0.128 ± 0.0204 | 86% | 35 | – | 0.325 | – | remarkable cytotoxicity | – | – | –
CC(C)N(CC(O)COc1cccc2ccccc12)C(=O)/C=C/c1cccc(Oc2ccccc2)c1 (stereo not shown) [Compound 2b, (E)N-(2-hydroxy-3-(naphthalen-1-yloxy)propyl)-N-isopropyl-3-(3phenoxyphenyl) acrylamide] | 0.907 and 0.907 ± 0.008 | 84% | 6 | – | 0.425 | 118 to 120 | – | – | – | –
COc1ccc(/C=C/C(=O)N(CC(O)COc2ccc(CC(N)=O)cc2)C(C)C)cc1OC (stereo not shown) [Compound 3a] | −0.841 and −0.841 ± 0.0014 | 86% | 10 | – | 1 | 176 to 178 | – | – | – | –
COc1ccc(/C=C/C(=O)N(CC(O)COc2cccc3ccccc23)C(C)C)cc1OC (stereo not shown) [Compound 3b, (E)-3-(3,4-dimethoxyphenyl)-N-(2-hydroxy-3-(naphthalen-1-yloxy)propyl)-N-isopropylacrylamide] | 0.0819 and 0.0819 ± 0.01 | 71% | 10 | – | 0.516 | 172 to 174 | – | – | – | –
CC(C)N(C[C@H](O)COc1cccc2ccccc12)C(=O)/C=C/c1cccc(Oc2ccccc2)c1 [Compound S-2b, (S)-N-(2-hydroxy-3-(naphth-1-yloxy)propyl)-N-isopropyl-3-(3-phenoxyphenyl) acrylamide] | – | 86% | 6 | – | 2.75 | – | – | – | – | –
O=C(O)c1ccccc1O [Salicylic acid, reference compound] | – | – | – | – | – | – | – | – | – | 53.6
Cc1c(C)c2c(c(C)c1O)CCC(C)(C(=O)O)O2 (stereo not shown) [Trolox, reference compound] | – | 93% | – | – | – | – | – | – | – | –
(E)-2-(benzylamino) ethyl 3-phenylacrylate [Compound 1e] | −0.374 ± 0.0176 | – | 100 | – | – | – | – | low or no activity | – | –
